From patent publication US20260297542A1, “HERBICIDE RESISTANT PLANTS” (SYNGENTA CROP PROTECTION AG, priority 2023, published 2026)
Residue numbers refer to the chain shown, from its start.

Key:
Test in all cases: E. coli hemG growth inhibition by herbicide, AtPPO1 variant
Type in all cases: cell-based
Conditions in all cases: read-out: percentage growth inhibition
AtPPO1 Y426V = molecular target: T1, AtPPO1 Y426V (Arabidopsis thaliana, UniProt P55826, Y426V)
T1 construct: expressed in transfected cells; host or cells: E. coli BL21(DE3) hemG (pET24a, T7 promoter)
T1 sequence (P55826 35-537 Y426V): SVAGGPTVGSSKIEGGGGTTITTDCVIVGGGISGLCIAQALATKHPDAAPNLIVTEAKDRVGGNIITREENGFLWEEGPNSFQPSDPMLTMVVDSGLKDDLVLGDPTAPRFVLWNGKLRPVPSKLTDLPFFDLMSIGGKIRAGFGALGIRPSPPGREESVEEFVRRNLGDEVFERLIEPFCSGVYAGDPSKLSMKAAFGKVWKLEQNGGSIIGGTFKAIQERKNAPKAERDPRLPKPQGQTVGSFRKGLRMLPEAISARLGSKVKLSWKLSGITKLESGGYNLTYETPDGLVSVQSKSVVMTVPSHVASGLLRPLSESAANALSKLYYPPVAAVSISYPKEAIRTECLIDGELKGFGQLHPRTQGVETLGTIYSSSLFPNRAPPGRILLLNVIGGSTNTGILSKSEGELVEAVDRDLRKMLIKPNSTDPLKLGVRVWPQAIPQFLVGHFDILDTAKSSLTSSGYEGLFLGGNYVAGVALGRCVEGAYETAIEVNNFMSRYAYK
Excerpt: (§1) A pET24a plasmid containing a DNA sequence encoding a variant of PPO1 derived from Arabidopsis thaliana (AtPPO1), codon-optimised for expression in E. coli and under control of a T7 promoter, was synthesised by Twist Bioscience (SEQ ID NO:3). This plasmid was used as the basis of a Site Saturation Variant Library (SSVL) that substituted the codons at 352 amino acid positions for codons that encoded one of the other 19 amino acids, or removed the codon altogether, resulting in a translation product with a deletion at that position.
(§2) The SSVL was batch-transformed by electroporation into an E. coli BL21(DE3) hemG strain with the hemG gene replaced by CmR conferring resistance to chloramphenicol and spread onto LA supplemented with 50 μg/mL kanamycin, 25 μg/mL chloramphenicol and 20 μg/mL hematin. Each batch consisted of all the plasmids that contained variants at two sites.
(§3) Colonies from batch transformations were inoculated into 500 μL of Terrific broth supplemented with 50 μg/mL kanamycin, 25 μg/mL chloramphenicol and 20 μg/mL hematin in 96-deepwell blocks. Cultures were grown for 24 hours at 37° C. with shaking at 250 rpm.
(§4) Overnight cultures were centrifuged and the cell pellets resuspended with 500 μL of Terrific broth. The resuspended cultures were used at a ratio of 1:100 to inoculate a fresh 96-deepwell block containing 500 μL of Terrific broth supplemented with 0.1 mM IPTG, 50 μg/mL kanamycin, 25 μg/mL chloramphenicol and 6.25 ppm of herbicide […] or E or 0.78 ppm herbicide B or DMSO. Assay cultures were grown for 24 hours at 37° C. with shaking at 250 rpm with the OD600 being measured at 24 hours post inoculation. Strains that grew in both DMSO and herbicide were determined to be herbicide tolerant with the percentage of growth inhibition being calculated as below: […]

AtPPO1 Y219S = molecular target: T2, AtPPO1 Y219S (Arabidopsis thaliana, UniProt P55826, Y219S)
T2 construct: expressed in transfected cells; host or cells: E. coli BL21(DE3) hemG (hemG replaced by CmR), pET24a plasmid
T2 sequence (P55826 35-537 Y219S): T1 sequence (P55826 35-537 Y426V) with Y185S, V392Y
Excerpt: as §1, §2, §3, §4

AtPPO1 R449K = molecular target: T3, AtPPO1 R449K (Arabidopsis thaliana, UniProt P55826, R449K)
T3 construct: expressed in transfected cells; host or cells: E. coli BL21(DE3) hemG, pET24a plasmid
T3 sequence (P55826 35-537 R449K): T1 sequence (P55826 35-537 Y426V) with V392Y, R415K
Excerpt: as §1, §2, §3, §4

AtPPO1 Y426L = molecular target: T4, AtPPO1 Y426L (Arabidopsis thaliana, UniProt P55826, Y426L)
T4 construct: expressed in transfected cells; host or cells: E. coli BL21(DE3) hemG (pET24a, T7 promoter)
T4 sequence (P55826 35-537 Y426L): T1 sequence (P55826 35-537 Y426V) with V392L
Excerpt: as §1, §2, §3, §4

| Structure (SMILES) | inhibition at 0.78 ppm (AtPPO1 Y426V) | inhibition at 0.78 ppm (AtPPO1 Y219S) | inhibition at 0.78 ppm (AtPPO1 R449K) | inhibition at 0.78 ppm (AtPPO1 Y426L) | inhibition at 6.25 ppm (AtPPO1 Y426V) | inhibition at 6.25 ppm (AtPPO1 Y219S) | inhibition at 6.25 ppm (AtPPO1 R449K) | inhibition at 6.25 ppm (AtPPO1 Y426L) |
| --- | --- | --- | --- | --- | --- | --- | --- | --- |
| C#CCN1C(=O)C(F)(F)Oc2cc(F)c(-n3c(=O)n(C)c(=S)n(C)c3=O)cc21 [Herbicide B, trifludimoxazin] | 5% | 28% | 35% | 15% |  |  |  |  |
| CCOC(=O)[C@]1(C)CC(c2cc(-n3c(=O)n(C)c(=S)n(C)c3=O)c(F)cc2Cl)=NO1 [Herbicide D, ethyl (5S)-3-[2-chloro-5-(3,5-dimethyl-2,6-dioxo-4-thioxo-1,3,5-triazinan-1-yl)-4-fluoro-phenyl]-5-methyl-4H-isoxazole-5-carboxylate] |  |  |  |  | 16% | 33% | 37% | 25% |
| CC(C)N(C)S(=O)(=O)NC(=O)c1cc(-n2c(=O)cc(C(F)(F)F)n(C)c2=O)c(F)cc1Cl [Herbicide E, saflufenacil] |  |  |  |  | 7% | 49% | 68% | 12% |
